27 molecules from patent US20240059703A1 (AMGEN INC., priority 2021, published 2024) can be followed below.

pIC50: −log10 of the molar value.

The target of one assay is KRAS G12C (Homo sapiens (Human), UniProt P01116, C118A/G12C). As to the kind of experiment: 2 h coupled exchange assay. In kind it is biochemical. As to conditions: Avg 2 h Coupled exchange IC50, 2 h compound pre-incubation. Here is the method:
The term “2 h coupled exchange assay” or “20 h coupled exchange assay” as used herein refers to the assay described in the Section entitled “BIOLOGICAL EVALUATION.”
Regarding `C=CC(=O)N1CC2(CCN(c3nc4cc(-c5cc(C)nn5C)ccc4c(-c4ccccc4Cl)c3C)C2)C1` [Example 16-2, 1-(6-(4-(2-chlorophenyl)-7-(1,3-dimethyl-1H-pyrazol-5-yl)-3-methyl-2-quinolinyl)-2,6-diazaspiro[3.4]octan-2-yl)-2-propen-1-one], the pIC50 (commonly −log10 of the IC50, conventionally taken in molar units) was 6.19.

Regarding `C=CC(=O)N1CC2(CCN(c3nc4cc(-c5ccnn5C)ccc4c(-c4ccc(F)cc4)c3C)C2)C1` [Example 16-3, 1-(6-(4-(4-fluorophenyl)-3-methyl-7-(1-methyl-1H-pyrazol-5-yl)-2-quinolinyl)-2,6-diazaspiro[3.4]octan-2-yl)-2-propen-1-one], the pIC50 is 6.28.

In turn, `C=CC(=O)N1CC2(CCN(c3nc4cc(-c5ccnn5C)ccc4c(-c4ccccc4F)c3C)C2)C1` [Example 16-4, 1-(6-(4-(2-fluorophenyl)-3-methyl-7-(1-methyl-1H-pyrazol-5-yl)-2-quinolinyl)-2,6-diazaspiro[3,4]octan-2-yl)-2-propen-1-one] had a pIC50 of 6.19.

For the molecule `C=CC(=O)N1CC2(CCN(c3nc4cc(-c5ccnn5C)ccc4c(-c4c(O)cccc4Cl)c3C)C2)C1` [Example 16-5, 1-(6-(4-(2-chloro-6-hydroxyphenyl)-3-methyl-7-(1-methyl-1H-pyrazol-5-yl)-2-quinolinyl)-2,6-diazaspiro[3.4]octan-2-yl)-2-propen-1-one], the pIC50 was 6.41.

`C=CC(=O)N1CC2(CCN(c3nc4cc(-c5ccnn5C)ccc4c(-c4ccc(F)cc4F)c3C)C2)C1` [Example 16-6, 1-(6-(4-(2,4-difluorophenyl)-3-methyl-7-(1-methyl-1H-pyrazol-5-yl)-2-quinolinyl)-2,6-diazaspiro[3.4]octan-2-yl)-2-propen-1-one]: the pIC50 is 6.15.

In turn, `C=CC(=O)N1CC2(CCN(c3nc4cc(-c5ccnn5C)ccc4c(-c4cccc(F)c4Cl)c3C)C2)C1` [Example 16-7, 1-(6-(4-(2-chloro-3-fluorophenyl)-3-methyl-7-(1-methyl-1H-pyrazol-5-yl)-2-quinolinyl)-2,6-diazaspiro[3.4]octan-2-yl)-2-propen-1-one] had a pIC50 of 6.15.

`C=CC(=O)N1CC2(CCN(c3nc4cc(-c5ccnn5C)ccc4c(-c4c(C)cccc4F)c3C)C2)C1` [Example 16-8, 1-(6-(4-(2-fluoro-6-methylphenyl)-3-methyl-7-(1-methyl-1H-pyrazol-5-yl)-2-quinolinyl)-2,6-diazaspiro[3.4]octan-2-yl)-2-propen-1-one] had a pIC50 of 6.15.

In turn, `C=CC(=O)N1CC2(CCN(c3nc4cc(-c5ccnn5C)ccc4c(-c4c(O)cccc4F)c3C)C2)C1` [Example 16-10, 1-(6-(4-(2-fluoro-6-hydroxyphenyl)-3-methyl-7-(1-methyl-1H-pyrazol-5-yl)-2-quinolinyl)-2,6-diazaspiro[3,4]octan-2-yl)-2-propen-1-one] had a pIC50 of 6.59.

Turning to `C=CC(=O)N1CC2(CCN(c3nc4cc(-c5ccnn5C)ccc4c(-c4cc(O)ccc4F)c3C)C2)C1` [Example 16-11, 1-(6-(4-(2-fluoro-5-hydroxyphenyl)-3-methyl-7-(1-methyl-1H-pyrazol-5-yl)-2-quinolinyl)-2,6-diazaspiro[3,4]octan-2-yl)-2-propen-1-one], the pIC50 is 6.46.

As to `C=CC(=O)N1CC2(CCN(c3nc4cc(-c5ccnn5C)ccc4c(-c4cc(O)c(F)cc4F)c3C)C2)C1` [Example 16-12, 1-(6-(4-(2,4-difluoro-5-hydroxyphenyl)-3-methyl-7-(1-methyl-1H-pyrazol-5-yl)-2-quinolinyl)-2,6-diazaspiro[3.4]octan-2-yl)-2-propen-1-one], the pIC50 is 6.31.

`C=CC(=O)N1CC2(CCN(c3nc4cc(-c5ccnn5C)ccc4c(-c4cc(O)cc(F)c4F)c3C)C2)C1` [Example 16-13, 1-(6-(4-(2,3-difluoro-5-hydroxyphenyl)-3-methyl-7-(1-methyl-1H-pyrazol-5-yl)-2-quinolinyl)-2,6-diazaspiro[3.4]octan-2-yl)-2-propen-1-one] had a pIC50 of 6.43.

`C=CC(=O)N1CC2(CCN(c3nc4cc(-c5ccnn5C)ccc4c(-c4cc(O)c(F)cc4Cl)c3C)C2)C1` [Example 16-14, 1-(6-(4-(2-chloro-4-fluoro-5-hydroxyphenyl)-3-methyl-7-(1-methyl-1H-pyrazol-5-yl)-2-quinolinyl)-2,6-diazaspiro[3.4]octan-2-yl)-2-propen-1-one] had a pIC50 of 6.43.

With `C=CC(=O)N1CC2(CCN(c3nc4cc(-c5ccnn5C)ccc4c(-c4ccccc4Cl)c3C#N)C2C)C1` (stereo not drawn) [Example 17-1, 2-(2-acryloyl-5-methyl-2,6-diazaspiro[3.4]octan-6-yl)-4-(2-chlorophenyl)-7-(1-methyl-1H-pyrazol-5-yl)quinoline-3-carbonitrile], the pIC50 was 6.53.

As for `C=CC(=O)N1CC2(CCN(c3nc4cc(-c5ccnn5C(F)F)ccc4c(-c4ccccc4Cl)c3C#N)C2)C1` [Example 17-4, 4-(2-chlorophenyl)-7-(1-(difluoromethyl)-1H-pyrazol-5-yl)-2-(2-(2-propenoyl)-2,6-diazaspiro[3.4]octan-6-yl)-3-quinolinecarbonitrile], the negative-log IC50 (pIC50) was 6.28.

`C=CC(=O)N1CC2(CCN(c3nc4cc(-c5ccn[nH]5)ccc4c(-c4ccccc4Cl)c3C#N)C2)C1` [Example 17-8, 4-(2-chlorophenyl)-2-(2-(2-propenoyl)-2,6-diazaspiro[3.4]octan-6-yl)-7-(1H-pyrazol-3-yl)-3-quinolinecarbonitrile]: the pIC50 is 6.24.

Take `C=CC(=O)N1CC2(CCN(c3nc4cc(-c5ocnc5C)ccc4c(-c4ccccc4Cl)c3C#N)C2)C1` [Example 17-9, 4-(2-chlorophenyl)-7-(4-methyl-1,3-oxazol-5-yl)-2-(2-(2-propenoyl)-2,6-diazaspiro[3.4]octan-6-yl)-3-quinolinecarbonitrile]: the negative logarithm of the IC50 (pIC50) was 6.14.

For the molecule `C=CC(=O)N1CC2(CCN(c3nc4cc(-c5ocnc5C)ccc4c(-c4ccccc4F)c3C#N)C2)C1` [Example 17-10, 4-(2-fluorophenyl)-7-(4-methyl-1,3-oxazol-5-yl)-2-(2-(2-propenoyl)-2,6-diazaspiro[3.4]octan-6-yl)-3-quinolinecarbonitrile], the pIC50 was 6.24.

In turn, `C=CC(=O)N1CC2(CCN(c3nc4c(c(-c5ncccc5F)c3C#N)CC[C@@H](c3scnc3C)C4)C2)C1` [Example 23-59, (7R)-4-(3-fluoro-2-pyridinyl)-7-(4-methyl-1,3-thiazol-5-yl)-2-(2-(2-propenoyl)-2,6-diazaspiro[3.4]octan-6-yl)-5,6,7,8-tetrahydro-3-quinolinecarbonitrile] showed a pIC50 of 6.79.

Consider `C=CC(=O)N1CC2(CCN(c3nc4c(c(-c5cc(NS(C)(=O)=O)cc6ccccc56)c3C#N)CC(C)(C)C4)C2)C1` [Example 25-1, N-(4-(3-cyano-6,6-dimethyl-2-(2-(2-propenoyl)-2,6-diazaspiro[3.4]octan-6-yl)-6,7-dihydro-5H-cyclopenta[b]pyridin-4-yl)-2-naphthalenyl)methanesulfonamide], for which the pIC50 was 6.35.

With `C=CC(=O)N1CC2(CCN(c3nc4cc(-c5scnc5C)cnc4c(-c4ccccc4F)c3Cl)C2)C1` [Example 28-1, 1-(6-(3-chloro-4-(2-fluorophenyl)-7-(4-methylthiazol-5-yl)-1,5-naphthyridin-2-yl)-2,6-diazaspiro[3.4]octan-2-yl)prop-2-en-1-one], the pIC50 is 6.18.

As for `C=CC(=O)N1CC2(CCN(c3nc4c(c(-c5c(C)ccc6cnn(C)c56)c3C(F)F)COC(C)(C)C4)C2)C1` [Example 29-1, 1-(6-(3-(difluoromethyl)-4-(1,6-dimethyl-1H-indazol-7-yl)-7,7-dimethyl-7,8-dihydro-5H-pyrano[4,3-b]pyridin-2-yl)-2,6-diazaspiro[3.4]octan-2-yl)-2-propen-1-one], the pIC50 is 6.19.

With `Cc1ccc2[nH]ncc2c1-c1c(C#N)c(N2CCC3(CN(C(=O)/C=C/COC(F)F)C3)C2)nc2c1CCC(C)(C)C2` [Example 30-1, 2-(2-((2E)-4-(difluoromethoxy)-2-butenoyl)-2,6-diazaspiro[3.4]octan-6-yl)-7,7-dimethyl-4-(5-methyl-1H-indazol-4-yl)-5,6,7,8-tetrahydro-3-quinolinecarbonitrile], the pIC50 is 6.31.

The molecule `Cc1ccc2[nH]ncc2c1-c1c(Cl)c(N2CCC3(CN(C(=O)/C=C/CN(C)C)C3)C2)cc2c1OCCC2` [Example 32-1, (2E)-1-(6-(7-chloro-8-(5-methyl-1H-indazol-4-yl)-3,4-dihydro-2H-chromen-6-yl)-2,6-diazaspiro[3.4]octan-2-yl)-4-(dimethylamino)-2-buten-1-one] showed a pIC50 of 6.22.

Consider `C=CC(=O)N1CC2(CCN(c3nc4c(c(-c5[nH]c(=O)c(Br)c6ccccc56)c3C#N)CCC(C)(C)C4)C2)C1` [Example 33-1, 4-(4-bromo-3-oxo-2,3-dihydro-1-isoquinolinyl)-7,7-dimethyl-2-(2-(2-propenoyl)-2,6-diazaspiro[3.4]octan-6-yl)-5,6,7,8-tetrahydro-3-quinolinecarbonitrile], for which the pIC50 is 6.21.

`C=CC(=O)N1CC2(CCN(c3nc4c(c(-c5[nH]c(=O)cc6ccccc56)c3C#N)CCC(C)(C)C4)C2)C1` [Example 33-2, 7,7-dimethyl-4-(3-oxo-2,3-dihydro-1-isoquinolinyl)-2-(2-(2-propenoyl)-2,6-diazaspiro[3.4]octan-6-yl)-5,6,7,8-tetrahydro-3-quinolinecarbonitrile] gave a negative logarithm of the IC50 (pIC50) of 6.18.

Staying with this assay, now noted: read-out: Avg 2 h Coupled exchange IC50, 2 h compound pre-incubation, SOS-mediated nucleotide exchange.
Turning to “(M)-1-(6-(4-(5-chloro-1-methyl-1H-indazol-7-yl)-3,7,7-trimethyl-7,8-dihydro-5H-pyrano[4,3-b]pyridin-2-yl)-2,6-diazaspiro[3.4]octan-2-yl)-2-propen-1-one [Example 2-33]”, the negative-log IC50 (pIC50) is 4.76.

Regarding “(P)-1-(6-(4-(5-chloro-1-methyl-1H-indazol-7-yl)-3,7,7-trimethyl-7,8-dihydro-5H-pyrano[4,3-b]pyridin-2-yl)-2,6-diazaspiro[3.4]octan-2-yl)-2-propen-1-one [Example 2-34]”, the pIC50 is 6.37.
